# Test results from US20210236605A1, “COMBINATIONS OF OSTEOPONTIN AND 2'-FUCOSYLLACTOSE FOR USE AS MEDICAMENTS” (HEALTH AND HAPPINESS (H&H) HONG KONG LIMITED, priority 2018, published 2021).
# What was measured:
# [1] = system: cytokine mRNA expression in skin (TSLP, IL-4, IL-17, IFN-γ, T-bet, GATA3, ROR-γt); assay: Quantitative RT-PCR of cytokine and transcription factor mRNA in dorsal skin of DNCB-treated mice; assay type: in vivo, BALB/c mice; conditions: dorsal skin / skin lesions, ratio to GAPDH, vs saline-treated/control AD mice
# Experimental: Total RNA was isolated from the dorsal skin of the control and treated BALB/c mice. Subsequently, cytokine mRNA expression in the skin sample was measured by RT-PCR.
# Balb/c mice were purchased from the Animal Center of Southern Medical University (Guangzhou, China). The animals were maintained under a 12-h light/dark cycle in a specific pathogen-free animal facility at a controlled temperature (20-25° C.) and humidity (50±5%). All mice were fed with regular diet and autoclaved water. All animal experiments in this study were approved by the Welfare and Ethical Committee for Experimental Animal Care of Southern Medical University. […]
# Total RNA was isolated from dorsal skin using TRIzol (TransGen Biotech, Beijing, China) according to manufacturer's instruction. 500 ng RNA was quantified for the reverse transcription reaction with TranScript All-in-One First-Strand cDNA Synthesis SuperMix (TransGen Biotech, Beijing, China) in a total volume of 10 μL. Quantitative real-time PCR (RT-PCR) analysis of gene expression was performed using TransStart Green qPCR SuperMix (TransGen Biotech, Beijing, China). […]
# FIGS. 5 (a), (b) and (c): Relative mRNA expression levels of Th2-associated cytokines ((a) TSLP and (b) IL-4) and IL17a, as measured by RT-PCR and expressed as a ratio of GAPDH, extracted from BALB/c mice treated with DNCB in the presence and absence of OPN and/or 2FL. *p<0.05, **p<0.01. […]
# [2] = system: DNCB-induced AD-like symptoms in BALB/c mice; assay: Evaluation of AD score / AD-like symptoms in DNCB-induced BALB/c AD model; assay type: in vivo; conditions: for severity of DNCB-induced AD-like symptoms: BALB/c mice, OPN 37.5 or 2.7 mg/kg(bw)/day, 2-FL 600 or 75 mg/kg(bw)/day, compared with saline-supplemented mice; for AD score (dermatitis score, AD-like symptoms): oral administration, DNCB-treated BALB/c mice, FIG. 1, combinations esp. trials 7 and 8 (high OPN)
# Source text: To investigate the potential therapeutic effect of OPN or 2-FL or an OPN/2FL combination on inflammation and emergence of atopic dermatitis (AD), BALB/c AD model was established by topical application of DNCB on each ear and the dorsal skin. Edema, excoriation, erythema, and scarring were apparent on the skin of DNCB sensitized mice after multiple challenged of DNCB. Strikingly, the severity of DNCB-induced AD-like symptoms in BALB/c mice was ameliorated upon supplementation with OPN (37.5 or 2.7 mg/kg(bw) day) and 2-FL (600 or 75 mg/kg(bw)·day) compared with saline-supplemented mice. Pruritus is an essential feature of AD. The scratching behaviour has already been established as an objective indicator to evaluate pruritus in animal model.
# (§1) Balb/c mice were purchased from the Animal Center of Southern Medical University (Guangzhou, China). The animals were maintained under a 12-h light/dark cycle in a specific pathogen-free animal facility at a controlled temperature (20-25° C.) and humidity (50±5%). All mice were fed with regular diet and autoclaved water. All animal experiments in this study were approved by the Welfare and Ethical Committee for Experimental Animal Care of Southern Medical University. To induce AD-like symptom, dinitrochlorobenzene (DNCB) solution (dissolved in a 3:1 mixture of acetone and olive oil) was applied to the dorsal skin and ears of mice (female, 6-8 weeks old). One day after complete dorsal hair removal (approximately 4 cm^2), 150 μl of 2% DNCB solution was applied on the dorsal skin, and 10 μl each were applied to the back of both ears at day 1. Four days after sensitization, 0.5% DNCB dissolved in an acetone:olive oil mixture (3:1 vol/vol) is applied to challenge the dorsal skin (150 μl) and the back of both ears (10 μl each) once every two days, (days-27). OPN and 2-FL were dissolved in 0.9% normal saline. Mice treated with DNCB are intragastrically administered with 2-FL, OPN or 2-FL plus OPN from day 0 to day 27. The mice in the vehicle and another DNCB groups are given an equal volume of physiological saline.
# The severity of dorsal skin lesions were assessed macroscopically according to the following four symptoms: edema, erythema/hemorrhage, excoriation/erosion, and scarring/dryness, and the sum of the individual scores (0, no symptoms; 1, mild; 2, moderate; 3, severe), ranging from 0 to 12, was defined as the final dermatitis scores. These visual assessments were performed every two day and by at least two independent investigators.
# FIG. 1: OPN and 2-FL alleviation of AD-like symptoms induced—as per dermatitis score evaluation—by DNCB in BALB/c mice. […]
# serum IgE = assay: Determination of serum IgE levels (ELISA) in DNCB sensitized mice; assay type: in vivo; conditions: day 27, DNCB-sensitized BALB/c mice (DNCB saline group 1025.02±82.68), FIG. 3; combination = high dose, trial 8
# Experimental: as §1, with “Mice treated with DNCB are intragastrically administered with 2-FL, OPN or 2-FL plus OPN from day 0 to day 27. The mice in the vehicle and another DNCB groups are given an equal volume of physiological saline.” left out
# Individual mouse serum was collected on the last day of the experiment. Serum levels of IgE were quantified using the commercial enzyme-linked immunosorbent assay (ELISA) kits (Invitrogen, San Diego, USA) according to the manufacturer's instructions. […]
# [3] = system: scratching behaviour (pruritus) in DNCB-treated BALB/c mice; assay: Assessment of scratching behaviour in DNCB-treated BALB/c mice; assay type: in vivo; conditions: oral administration, FIG. 2, combination esp. trials 7 & 8
# Experimental: as §1, with “OPN and 2-FL were dissolved in 0.9% normal saline. Mice treated with DNCB are intragastrically administered with 2-FL, OPN or 2-FL plus OPN from day 0 to day 27. The mice in the vehicle and another DNCB groups are given an equal volume of physiological saline.” left out
# Mice were placed into cages for 1 h for habituation. After habituation, the number of scratching episodes for 15 min was counted macroscopically. A series of scratching movements made with the paw was counted as one scratching episode. The total scratching behaviour number was calculated within 15 min. […]
substance,measurement,setting,value
osteopontin [OPN],IL-17 mRNA expression in skin,[1],significantly lower
same,severity of DNCB-induced AD-like symptoms,[2],ameliorated
same,"AD score (dermatitis score, AD-like symptoms)",[2],reduced substantially
same,serum IgE concentration,serum IgE,388.22 ± 61.28 µg/mL
same,scratching behaviour (number of scratching episodes for 15 min),[3],reduced scratching behaviour
2′-fucosyllactose [2-FL],IL-17 mRNA expression in skin,[1],significantly lower
same,severity of DNCB-induced AD-like symptoms,[2],ameliorated
same,"AD score (dermatitis score, AD-like symptoms)",[2],reduced substantially
same,serum IgE concentration,serum IgE,621.27 ± 46.79 µg/mL
same,scratching behaviour (number of scratching episodes for 15 min),[3],reduced scratching behaviour
